Where a name gives a salt, the structure may show the parent alone.
Tests used:
L6-myotubes = experiment: Glucose uptake (3H-2-deoxy-glucose) in differentiated L6-myotubes; type: cell-based; settings: agonist final concentration 1×10^−5, 50 nM 3H-2-deoxy-glucose, relative to isoproterenol, read-out: Biological example 1 (glucose uptake, activity compared to that of isoproterenol)
Procedure: (§1) L6-myoblasts were grown in Dulbecco's Modified Eagle's Medium (DMEM) containing 4.5 g/I glucose supplemented with 10% fetal bovine serum, 2 mM L-Glutamine, 50 U/ml penicillin, 50 μg/ml streptomycin and 10 mM HEPES. Cells were plated at 1×10^5 cells per ml in 24-well plates. After reaching 90% confluence the cells were grown in medium containing 2% FBS for 7 days where upon cells differentiated into myotubes.
Differentiated L6-myotubes were serum-starved over night in medium containing 0.5% fatty-acid free BSA and stimulated with agonist, final concentration 1×10^−5. After 1 h 40 min cells were washed with warm, glucose free medium or PBS and another portion of agonist was added to glucose free medium. After 20 min the cells were exposed to 50 nM ^3H-2-deoxy-glucose for another 10 min before washed in ice cold glucose free medium or PBS and lysed in 0.2 M NaOH for 1 h in 60° C.

[1] = test system: Intracellular cAMP levels; experiment: Measurement of intracellular cAMP levels in differentiated L6 cells (alpha screen cAMP kit); type: cell-based; settings: Rattus norvegicus, L6, 0.25 h, agonist final concentration 1×10^−5 for 15 min, 1 mM IBMX, relative to isoproterenol, read-out: Biological example 2 (intracellular cAMP levels, activity compared to that of isoproterenol)
Procedure: as §1
Differentiated cells were serum-starved over night and stimulated with agonist, final concentration 1×10^−5, for 15 min in stimulation buffer (HBSS supplemented with 1% BSA, 5 mM HEPES and 1 mM IBMX, pH 7.4) The medium was then aspirated and to end the reaction 100 μL of 95% EtOH was added to each well of a 24-well plate and cells were kept in −20° C. over night. The EtOH was let to evaporate and 500 μL of lysis buffer (1% BSA, 5 mM HEPES and 0.3% Tween-20, pH 7.4) was added to each well before put in −80° C. for 30 min and then kept in −20° C. Intracellular cAMP levels were detected using an alpha screen cAMP kit (6760635D from Perkin Elmer). The activity for each compound is compared to that of isoproterenol.

CCCCNC[C@H](O)c1cnc(NC(=O)C(C)C)nc1 [Example 10, (R)—N-(5-(2-(Butylamino)-1-hydroxyethyl)pyrimidin-2-yl)isobutyramide hydrochloride]
Emax (L6-myotubes): 50 to 75% | Emax [1]: < 25%

CC(C)(C)NC[C@H](O)c1cncc(O)c1 [Example 13, (R)-5-(2-(tert-Butylamino)-1-hydroxyethyl)pyridin-3-ol dihydrochloride]
Emax (L6-myotubes): > 75% | Emax [1]: < 25%

CC(C)(C)NCC(O)c1ccncc1O (stereo not drawn) [Example 14, 4-(2-(tert-Butylamino)-1-hydroxyethyl)pyridin-3-ol hydrochloride]
Emax (L6-myotubes): > 75% | Emax [1]: < 25%

CC(C)(C)NC[C@H](O)c1ccc(O)cn1 [Example 12, (S)-6-(2-(tert-Butylamino)-1-hydroxyethyl)pyridin-3-ol]
Emax (L6-myotubes): 50 to 75% | Emax [1]: < 25%

CCCCNC[C@H](O)c1csc(C(F)(F)F)n1 [Example 2, (S)-2-(Butylamino)-1-(2-(trifluoromethyl)thiazol-4-yl)ethan-1-ol hydrochloride]
Emax (L6-myotubes): 25 to 50% | Emax [1]: < 25%

CC(C)(C)NC[C@H](O)c1ccncc1F [Example 18, (R)-2-(tert-Butylamino)-1-(3-fluoropyridin-4-yl)ethan-1-ol]
Emax (L6-myotubes): 25 to 50% | Emax [1]: < 25%

CCCCNCC(O)c1ccc(=O)[nH]c1 (stereo not drawn) [Example 3, 5-(2-(Butylamino)-1-hydroxyethyl)pyridin-2(1H)-one]
Emax (L6-myotubes): 25 to 50% | Emax [1]: < 25%

CC(C)(C)NC[C@H](O)c1ncccc1Cl [Example 20, (S)-2-(tert-Butylamino)-1-(3-chloropyridin-2-yl)ethan-1-ol dihydrochloride]
Emax (L6-myotubes): 25 to 50% | Emax [1]: < 25%

Cn1ccc([C@@H](O)CNC(C)(C)C)cc1=O [Example 15, (R)-4-(2-(tert-Butylamino)-1-hydroxyethyl)-1-methylpyridin-2(1H)-one]
Emax (L6-myotubes): > 75% | Emax [1]: < 25%

CCCCNCC(O)c1ccncc1 (stereo not drawn) [Example 6, 2-(Butylamino)-1-(pyridin-4-yl)ethan-1-ol]
Emax (L6-myotubes): 25 to 50% | Emax [1]: < 25%

CCCCNC[C@H](O)c1csc(N)n1 [Example 1, (S)-1-(2-Aminothiazol-4-yl)-2-(butylamino)ethan-1-ol hydrochloride]
Emax (L6-myotubes): 25 to 50% | Emax [1]: < 25%

CCCCNC[C@H](O)c1cnc(NC(=O)C(C)C)s1 [Example 8, (S)—N-(5-(2-(Butylamino)-1-hydroxyethyl)thiazol-2-yl)isobutyramide]
Emax (L6-myotubes): 25 to 50% | Emax [1]: < 25%

CCCCNC[C@H](O)c1cnc(N)nc1 [Example 11, (R)-1-(2-Aminopyrimidin-5-yl)-2-(butylamino)ethan-1-ol]
Emax (L6-myotubes): 50 to 75% | Emax [1]: < 25%

CCCCNCC(O)c1cccnc1 (stereo not drawn) [Example 7, 2-(Butylamino)-1-(pyridin-3-yl)ethan-1-ol]
Emax (L6-myotubes): 50 to 75% | Emax [1]: < 25%

CCCCNC[C@H](O)c1cnc(N)s1 [Example 9, (S)-1-(2-Aminothiazol-5-yl)-2-(butylamino)ethan-1-ol dihydrochloride]
Emax (L6-myotubes): 25 to 50% | Emax [1]: < 25%

CC(C)(C)NC[C@H](O)c1cncc(Cl)c1 [Example 19, (R)-2-(tert-Butylamino)-1-(5-chloropyridin-3-yl)ethan-1-ol]
Emax (L6-myotubes): > 75% | Emax [1]: < 25%

CC(C)(C)NC[C@H](O)c1ccc(F)cn1 [Example 16, (S)-2-(tert-Butylamino)-1-(5-fluoropyridin-2-yl)ethan-1-ol]
Emax (L6-myotubes): 50 to 75% | Emax [1]: < 25%

CCCCNC[C@H](O)c1ccnc(N)n1 [Example 5, (S)-1-(2-Aminopyrimidin-4-yl)-2-(butylamino)ethan-1-ol]
Emax (L6-myotubes): 25 to 50% | Emax [1]: < 25%

CC(C)(C)NC[C@H](O)c1ccc(Cl)cn1 [Example 21, (S)-2-(tert-Butylamino)-1-(5-chloropyridin-2-yl)ethan-1-ol dihydrochloride]
Emax (L6-myotubes): 25 to 50% | Emax [1]: < 25%

CCCCNCC(O)c1cc[nH]c(=O)c1 (stereo not drawn) [Example 4, 4-(2-(Butylamino)-1-hydroxyethyl)pyridin-2(1H)-one acetate]
Emax (L6-myotubes): 50 to 75% | Emax [1]: < 25%

CC(C)(C)NC[C@H](O)c1cncc(F)c1 [Example 17, (R)-2-(tert-Butylamino)-1-(5-fluoropyridin-3-yl)ethan-1-ol]
Emax (L6-myotubes): > 75% | Emax [1]: 25 to 50%
